Tests used:
Format in all cases: cell-based
[1] = tested on: C. albicans SC5314 and C. albicans SN152; test: Effect of endocytosis inhibitors on growth of Candida cells; conditions: 8 μg/mL, FIGS. 6C-6F
[2] = tested on: C. albicans SC5314 and SN152 cells; test: Effect of endocytosis inhibitors on probe 1 uptake, flow cytometry; conditions: 8 μg/mL inhibitor, 1 μM probe 1, after 30 min, both SC5314 and SN152
Description: Assuming that echinocandin probe uptake occurs via endocytosis, then inhibitors of endocytosis should inhibit probe uptake as well. The accumulation of probe 1 in C. albicans SC5314 and SN152 cells was measured by flow cytometry in the absence and presence of endocytosis inhibitors trifluoperazine (TFP) or pyrroloquinoxaline derivative CGS 12066B (FIG. 6A).
For example, after 30 min, TFP inhibited the uptake of probe 1 by approximately 30% and CGS 12066B inhibited its uptake by approximately 60% in both C. albicans SC5314 and SN152.

[3] = tested on: C. albicans SC5314 and SN152; test: Competition for cellular uptake with probe 1, flow cytometry; conditions: added simultaneously with probe 1; caspofungin 1 μM, 10 μM; fluconazole 10 μM
Description: To determine if caspofungin competes for cellular uptake with fluorescent probe 1, both the drug and the probe were added simultaneously to cultures of strains SC5314 and SN152. The uptake of probe 1 was measured by flow cytometry every 15 minutes for 1 hour (FIG. 6B). […] No effect on the uptake of probe 1 was detected in cells co-treated with the antifungal azole drug fluconazole, which inhibits the biosynthesis of fungal membrane sterol, ergosterol.

Structure (SMILES)	effect on growth [1]	inhibition of the uptake of probe 1 [2]	inhibition at 8 µg/mL ([2]; Candida albicans, 0.5 h) [%]	effect on the uptake of probe 1 [3]
CN1CCN(c2nc3cc(C(F)(F)F)ccc3n3cccc23)CC1.O=C(O)/C=C\C(=O)O.O=C(O)/C=C\C(=O)O [CGS 12066B]	modestly reduce growth	approximately 60%		
CN1CCN(CCCN2c3ccccc3Sc3ccc(C(F)(F)F)cc32)CC1 [TFP, trifluoperazine]	modestly reduce growth		~30	
OC(Cn1cncn1)(Cn1cncn1)c1ccc(F)cc1F [fluconazole]				No effect

— patent publication US20230173018A1, “CASPOFUNGIN DERIVATIVES AND ASSAYS FOR EVALUATING ANTIFUNGAL TREATMENT EFFICACY” (priority 2020, published 2023)
